Data: ChEMBL document CHEMBL4020848, “Antibacterial Activity Affected by the Conformational Flexibility in Glycine-Lysine Based α-Helical Antimicrobial Peptides” (J Med Chem, 2018)
Active and inactive are the calls of the source. The rule behind the calls is not given here.

What was measured:
Escherichia coli [1] = assay: Induction of membrane permeabilization in Escherichia coli ATCC 25922 assessed as loss of pili/flagella at MBC after 1 hr by atomic force microscopic method; type: functional
Escherichia coli [2] = assay: Antibacterial activity against Escherichia coli ATCC 25922 after 18 hrs by microdilution method; type: functional
Escherichia coli [3] = assay: Induction of membrane permeabilization in Escherichia coli ATCC 25922 assessed as loss of pili/flagella at MIC after 1 hr by atomic force microscopic method; type: functional
Escherichia coli [4] = assay: Bactericidal activity against Escherichia coli ATCC 25922 after 18 hrs by microdilution method; type: functional; details: for MBC: ATCC 25922, 18 h, read-out: MBC=>99.9
Staphylococcus aureus [5] = assay: Antibacterial activity against clinical isolates of Staphylococcus aureus after 18 hrs by microdilution method; type: functional
Staphylococcus aureus [6] = assay: Bactericidal activity against Staphylococcus aureus ATCC 25923 after 18 hrs by microdilution method; type: functional; details: ATCC 25923, 18 h, read-out: MBC=>99.9
Staphylococcus aureus [7] = assay: Antibacterial activity against Staphylococcus aureus ATCC 25923 after 18 hrs by microdilution method; type: functional; details: ATCC 25923, 18 h
Escherichia coli [8] = assay: Induction of membrane permeabilization in Escherichia coli ATCC 25922 assessed as bleb formation at MIC after 1 hr by atomic force microscopic method; type: functional
Escherichia coli [9] = assay: Growth inhibition of Escherichia coli ATCC 25922 measured every 10 mins for 4 hrs; type: functional
Escherichia coli [10] = assay: Induction of membrane permeabilization in Escherichia coli ATCC 25922 assessed as propidium iodide uptake preincubated up to 60 mins followed by propidium iodide addition by flow cytometry; type: functional
Acinetobacter baumannii [11] = assay: Antibacterial activity against Acinetobacter baumannii ATCC 19606 after 18 hrs by microdilution method; type: functional; details: ATCC 19606 = CIP 70.34 = JCM 6841, 18 h
Escherichia coli [12] = assay: Induction of membrane permeabilization in Escherichia coli ATCC 25922 assessed as loss of pili/flagella up to 128 uM after 1 hr by atomic force microscopic method; type: functional
Klebsiella pneumoniae [13] = assay: Antibacterial activity against clinical isolates of Klebsiella pneumoniae after 18 hrs by microdilution method; type: functional
Pseudomonas aeruginosa [14] = assay: Antibacterial activity against clinical isolates of Pseudomonas aeruginosa after 18 hrs by microdilution method; type: functional
Escherichia coli [15] = assay: Induction of membrane permeabilization in Escherichia coli ATCC 25922 assessed as surface indentations at MIC after 1 hr by atomic force microscopic method; type: functional
Pseudomonas aeruginosa [16] = assay: Bactericidal activity against clinical isolates of Pseudomonas aeruginosa after 18 hrs by microdilution method; type: functional; details: read-out: MBC=>99.9
Staphylococcus aureus [17] = assay: Bactericidal activity against clinical isolates of Staphylococcus aureus after 18 hrs by microdilution method; type: functional; details: read-out: MBC=>99.9
Escherichia coli [18] = assay: Antibacterial activity against clinical isolates of Escherichia coli after 18 hrs by microdilution method; type: functional
Klebsiella pneumoniae [19] = assay: Bactericidal activity against clinical isolates of Klebsiella pneumoniae after 18 hrs by microdilution method; type: functional; details: read-out: MBC=>99.9
Escherichia coli [20] = assay: Induction of membrane permeabilization in Escherichia coli ATCC 25922 assessed as massive cell disruption/collapse at MBC after 1 hr by atomic force microscopic method; type: functional
Klebsiella pneumoniae [21] = assay: Bactericidal activity against Klebsiella pneumoniae ATCC 13883 after 18 hrs by microdilution method; type: functional; details: ATCC 13883, 18 h, read-out: MBC=>99.9
Pseudomonas aeruginosa [22] = assay: Bactericidal activity against Pseudomonas aeruginosa ATCC 27853 after 18 hrs by microdilution method; type: functional; details: ATCC 27853, 18 h, read-out: MBC=>99.9
Staphylococcus aureus [23] = assay: Growth inhibition of Staphylococcus aureus ATCC 25923 measured every 10 mins for 4 hrs; type: functional
Escherichia coli [24] = assay: Bactericidal activity against clinical isolates of Escherichia coli after 18 hrs by microdilution method; type: functional; details: read-out: MBC=>99.9
Acinetobacter baumannii [25] = assay: Antibacterial activity against clinical isolates of Acinetobacter baumannii after 18 hrs by microdilution method; type: functional
Klebsiella pneumoniae [26] = assay: Antibacterial activity against Klebsiella pneumoniae ATCC 13883 after 18 hrs by microdilution method; type: functional; details: ATCC 13883, 18 h
Escherichia coli [27] = assay: Induction of membrane permeabilization in Escherichia coli ATCC 25922 assessed as propidium iodide uptake at 0.25 to 1 times MIC preincubated up to 60 mins followed by propidium iodide addition by flow cytometry relative to control; type: functional
Pseudomonas aeruginosa [28] = assay: Antibacterial activity against Pseudomonas aeruginosa ATCC 27853 after 18 hrs by microdilution method; type: functional; details: ATCC 27853, 18 h
Acinetobacter baumannii [29] = assay: Bactericidal activity against clinical isolates of Acinetobacter baumannii after 18 hrs by microdilution method; type: functional; details: read-out: MBC=>99.9
Acinetobacter baumannii [30] = assay: Bactericidal activity against Acinetobacter baumannii ATCC 19606 after 18 hrs by microdilution method; type: functional; details: ATCC 19606 = CIP 70.34 = JCM 6841, 18 h, read-out: MBC=>99.9
Escherichia coli [31] = assay: Induction of membrane permeabilization in Escherichia coli ATCC 25922 assessed as formation of pores/cavities at MIC after 1 hr by atomic force microscopic method; type: functional
[32] = Selectivity index, ratio of HC50 for human RBC to MIC for Klebsiella pneumoniae ATCC 13883
[33] = Selectivity index, ratio of HC50 for human RBC to MIC for Pseudomonas aeruginosa
Escherichia coli [34] = assay: Ratio of MIC to IC50 for Escherichia coli ATCC 25922; type: functional
[35] = Selectivity index, ratio of HC50 for human RBC to MIC for Acinetobacter baumannii ATCC 19606
[36] = Selectivity index, ratio of HC50 for human RBC to MIC for Staphylococcus aureus ATCC 25923
[37] = Selectivity index, ratio of HC50 for human RBC to MIC for Klebsiella pneumoniae
[38] = Selectivity index, ratio of HC50 for human RBC to MIC for Staphylococcus aureus
[39] = Selectivity index, ratio of HC50 for human RBC to MIC for Pseudomonas aeruginosa ATCC 27853
Escherichia coli [40] = assay: Induction of membrane permeabilization in Escherichia coli ATCC 25922 assessed as propidium iodide uptake at MIC preincubated for 15 mins followed by propidium iodide addition by flow cytometry relative to control; type: functional
[41] = Selectivity index, ratio of HC50 for human RBC to MIC for Escherichia coli ATCC 25922
[42] = Selectivity index, ratio of HC50 for human RBC to MIC for Acinetobacter baumannii
[43] = Selectivity index, ratio of HC50 for human RBC to MIC for Escherichia coli

| MIC (Staphylococcus aureus [5]) [µM] | MIC (Staphylococcus aureus [7]) [µM] | IC50 (Escherichia coli [10]) [nM] | MIC (Acinetobacter baumannii [11]) [µM] | MIC (Klebsiella pneumoniae [13]) [µM] | MIC (Pseudomonas aeruginosa [14]) [µM] | MIC (Escherichia coli [2]; ATCC 25922, 18 h) [µM] | MIC (Escherichia coli [18]) [µM] | Substance | Activity (Escherichia coli [1]) | MBC (Staphylococcus aureus [6]) [µM] | Activity (Escherichia coli [8]) | IC50 (Escherichia coli [9]) [nM] | Activity (Escherichia coli [15]) | MBC (Pseudomonas aeruginosa [16]) [µM] | MBC (Staphylococcus aureus [17]) [µM] | MBC (Klebsiella pneumoniae [19]) [µM] | Activity (Escherichia coli [20]) | MBC (Klebsiella pneumoniae [21]) [µM] | MBC (Pseudomonas aeruginosa [22]) [µM] | IC50 (Staphylococcus aureus [23]) [nM] | also measured |
| --- | --- | --- | --- | --- | --- | --- | --- | --- | --- | --- | --- | --- | --- | --- | --- | --- | --- | --- | --- | --- | --- |
|  |  |  |  |  |  |  |  | COLISTIN | Active |  |  |  |  |  |  |  |  |  |  |  | MIC (Escherichia coli [2]): 0.5 µM; Activity (Escherichia coli [3]): Active; MBC=>99.9 (Escherichia coli [4]): 0.5 µM |
| > 64 | > 64 | > 128000 | > 64 | > 64 | > 64 | > 64 | > 64 | H-KIAGKAGKIAKIAGKAGKIA-NH2 | Active | > 64 | Active | > 128000 | Active | > 64 | > 64 | > 64 | Active | > 64 | > 64 | > 128000 | Activity (Escherichia coli [12]): inactive; MBC (Escherichia coli [24]): > 64 µM; MIC (Acinetobacter baumannii [25]): > 64 µM; MIC (Klebsiella pneumoniae [26]): > 64 µM; Activity (Escherichia coli [27]): <5%; MIC (Pseudomonas aeruginosa [28]): > 64 µM; MBC (Acinetobacter baumannii [29]): > 64 µM; MBC (Escherichia coli [4]): > 64 µM; MBC (Acinetobacter baumannii [30]): > 64 µM; Activity (Escherichia coli [31]): Active |
| 16 | 16 to 32 | 600 | 1 to 2 | 8 | 8 to 16 | 4 | 64 | H-KIAKGALKALKIAKGALKAL-NH2 | Active | 32 | Active | 300 | Active | 16 | 16 | 16 | Active | 4 | 16 to 32 | 1600 | Selectivity Index [32]: 25 to 50; Selectivity Index [33]: 6 to 12; Ratio (Escherichia coli [34]): >10; Selectivity Index [35]: 50 to 100; Selectivity Index [36]: 3 to 6; Selectivity Index [37]: 12; Selectivity Index [38]: 6; MBC (Escherichia coli [24]): > 64 µM; MIC (Acinetobacter baumannii [25]): > 64 µM; MIC (Klebsiella pneumoniae [26]): 2 to 4 µM; Selectivity Index [39]: 6 to 12; Activity (Escherichia coli [40]): >80%; Selectivity Index [41]: 25; MIC (Pseudomonas aeruginosa [28]): 8 to 16 µM; Selectivity Index [42]: < 1; MBC (Acinetobacter baumannii [29]): > 64 µM; Selectivity Index [43]: < 1; MBC (Escherichia coli [4]): 16 µM; MBC (Acinetobacter baumannii [30]): 2 µM; Activity (Escherichia coli [31]): Active |
